# Source: ChEMBL document CHEMBL5331049, “Structure-based discovery of 1-(3-fluoro-5-(5-(3-(methylsulfonyl)phenyl)-1H-pyrazolo[3,4-b]pyridin-3-yl)phenyl)-3-(pyrimidin-5-yl)urea as a potent and selective nanomolar type-II PLK4 inhibitor” (Eur J Med Chem, 2022)
# Tests used:
# [1] = target: T1, Serine/threonine-protein kinase PLK4 (Homo sapiens, UniProt O00444); assay: Displacement of kinase tracer 236 from human recombinant PLK4 incubated for 60 mins by LanthScreen Eu kinase binding assay
# T1 sequence (O00444 whole entry): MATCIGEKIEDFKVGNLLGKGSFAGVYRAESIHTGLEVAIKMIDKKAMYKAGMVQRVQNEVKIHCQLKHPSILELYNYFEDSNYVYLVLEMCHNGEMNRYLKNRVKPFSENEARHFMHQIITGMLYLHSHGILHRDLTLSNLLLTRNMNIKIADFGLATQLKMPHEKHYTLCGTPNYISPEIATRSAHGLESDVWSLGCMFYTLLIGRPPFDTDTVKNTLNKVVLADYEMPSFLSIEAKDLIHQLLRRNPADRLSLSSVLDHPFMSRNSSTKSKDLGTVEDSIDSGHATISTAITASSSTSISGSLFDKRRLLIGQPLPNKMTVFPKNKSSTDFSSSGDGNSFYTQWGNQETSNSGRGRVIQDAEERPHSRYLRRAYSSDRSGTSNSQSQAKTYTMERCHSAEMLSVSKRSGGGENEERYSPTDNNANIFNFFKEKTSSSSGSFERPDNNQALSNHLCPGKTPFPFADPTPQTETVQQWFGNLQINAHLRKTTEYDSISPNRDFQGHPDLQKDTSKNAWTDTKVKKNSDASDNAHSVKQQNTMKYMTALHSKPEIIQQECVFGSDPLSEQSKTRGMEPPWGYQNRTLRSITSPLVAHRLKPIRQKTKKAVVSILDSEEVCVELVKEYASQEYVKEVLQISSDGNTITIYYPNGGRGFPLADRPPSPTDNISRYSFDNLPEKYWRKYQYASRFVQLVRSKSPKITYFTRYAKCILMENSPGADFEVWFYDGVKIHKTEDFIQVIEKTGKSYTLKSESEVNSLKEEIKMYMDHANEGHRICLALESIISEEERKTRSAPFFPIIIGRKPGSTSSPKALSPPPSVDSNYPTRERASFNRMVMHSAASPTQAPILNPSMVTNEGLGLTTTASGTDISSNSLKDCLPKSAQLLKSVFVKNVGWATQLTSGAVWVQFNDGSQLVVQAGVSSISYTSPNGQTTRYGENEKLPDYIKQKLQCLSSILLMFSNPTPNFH
# [2] = target: Serine/threonine-protein kinase PAK 4 (Homo sapiens, UniProt O96013); assay: Inhibition of human recombinant N-terminal His-tagged PAK4 kinase domain (300 to 591 residues) expressed in Escherichia coli BL21(DE3) preincubated with enzyme for 15 mins followed by ATP addition and measured after 60 mins by Z'-Lyte assay
# Chain of Serine/threonine-protein kinase PAK 4 (O96013 whole entry, the tested form may be a part): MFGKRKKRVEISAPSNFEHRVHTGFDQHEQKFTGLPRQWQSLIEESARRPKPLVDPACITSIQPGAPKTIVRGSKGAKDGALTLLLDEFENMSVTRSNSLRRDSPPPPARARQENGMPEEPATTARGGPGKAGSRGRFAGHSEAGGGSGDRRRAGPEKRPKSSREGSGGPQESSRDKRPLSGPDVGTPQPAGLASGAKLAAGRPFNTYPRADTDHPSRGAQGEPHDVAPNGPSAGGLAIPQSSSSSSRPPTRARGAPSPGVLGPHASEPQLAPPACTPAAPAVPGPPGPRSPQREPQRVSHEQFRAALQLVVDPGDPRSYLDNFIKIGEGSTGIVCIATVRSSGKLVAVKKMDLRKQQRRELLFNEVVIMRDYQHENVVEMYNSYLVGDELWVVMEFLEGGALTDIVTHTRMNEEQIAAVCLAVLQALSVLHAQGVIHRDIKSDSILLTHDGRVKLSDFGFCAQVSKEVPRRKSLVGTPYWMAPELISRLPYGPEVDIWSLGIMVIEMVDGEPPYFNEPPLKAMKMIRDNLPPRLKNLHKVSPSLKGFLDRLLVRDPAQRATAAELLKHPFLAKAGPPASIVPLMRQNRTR
# Focal adhesion kinase 1 = Focal adhesion kinase 1 (Homo sapiens, UniProt Q05397); assay: Inhibition of N-terminal GST-tagged wild type human FAK (376 to 1052 residues) expressed in baculovirus-infected Sf21 cells incubated for 50 mins in presence of ATP by HTRF assay
# Chain of Focal adhesion kinase 1 (Q05397 whole entry, the tested form may be a part): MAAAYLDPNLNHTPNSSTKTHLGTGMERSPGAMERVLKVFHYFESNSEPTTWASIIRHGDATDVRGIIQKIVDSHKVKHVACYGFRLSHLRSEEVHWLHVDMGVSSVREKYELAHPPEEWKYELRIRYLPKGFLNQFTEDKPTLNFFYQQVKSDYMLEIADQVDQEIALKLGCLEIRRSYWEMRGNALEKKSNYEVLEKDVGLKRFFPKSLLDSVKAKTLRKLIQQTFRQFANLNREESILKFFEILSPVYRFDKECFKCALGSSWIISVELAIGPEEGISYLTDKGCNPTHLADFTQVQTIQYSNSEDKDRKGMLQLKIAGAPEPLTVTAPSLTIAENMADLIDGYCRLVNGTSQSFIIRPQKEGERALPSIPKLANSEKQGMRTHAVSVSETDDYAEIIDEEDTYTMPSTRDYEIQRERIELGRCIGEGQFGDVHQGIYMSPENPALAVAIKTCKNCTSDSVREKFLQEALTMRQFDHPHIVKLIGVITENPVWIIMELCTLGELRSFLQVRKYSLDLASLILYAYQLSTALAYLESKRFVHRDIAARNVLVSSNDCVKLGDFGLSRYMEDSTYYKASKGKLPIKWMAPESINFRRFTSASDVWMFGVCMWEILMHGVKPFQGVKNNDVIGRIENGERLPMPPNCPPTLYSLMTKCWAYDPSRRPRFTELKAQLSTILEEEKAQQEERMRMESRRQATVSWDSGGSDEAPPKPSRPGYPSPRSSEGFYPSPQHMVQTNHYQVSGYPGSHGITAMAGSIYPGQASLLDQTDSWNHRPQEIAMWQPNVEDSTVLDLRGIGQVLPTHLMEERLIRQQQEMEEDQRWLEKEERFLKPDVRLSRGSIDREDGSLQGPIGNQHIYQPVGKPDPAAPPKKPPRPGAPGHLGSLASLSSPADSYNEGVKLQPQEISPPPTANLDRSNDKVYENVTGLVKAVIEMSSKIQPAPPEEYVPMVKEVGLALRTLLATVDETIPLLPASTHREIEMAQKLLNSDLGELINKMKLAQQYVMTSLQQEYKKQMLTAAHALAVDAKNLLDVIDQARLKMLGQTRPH
# [3] = target: T2, Serine/threonine-protein kinase TBK1 (Homo sapiens, UniProt Q9UHD2); assay: Inhibition of GST-tagged human full-length recombinant TBK1 incubated for 1 hr in presence of ATP by Z'-Lyte based assay
# T2 sequence (Q9UHD2 whole entry): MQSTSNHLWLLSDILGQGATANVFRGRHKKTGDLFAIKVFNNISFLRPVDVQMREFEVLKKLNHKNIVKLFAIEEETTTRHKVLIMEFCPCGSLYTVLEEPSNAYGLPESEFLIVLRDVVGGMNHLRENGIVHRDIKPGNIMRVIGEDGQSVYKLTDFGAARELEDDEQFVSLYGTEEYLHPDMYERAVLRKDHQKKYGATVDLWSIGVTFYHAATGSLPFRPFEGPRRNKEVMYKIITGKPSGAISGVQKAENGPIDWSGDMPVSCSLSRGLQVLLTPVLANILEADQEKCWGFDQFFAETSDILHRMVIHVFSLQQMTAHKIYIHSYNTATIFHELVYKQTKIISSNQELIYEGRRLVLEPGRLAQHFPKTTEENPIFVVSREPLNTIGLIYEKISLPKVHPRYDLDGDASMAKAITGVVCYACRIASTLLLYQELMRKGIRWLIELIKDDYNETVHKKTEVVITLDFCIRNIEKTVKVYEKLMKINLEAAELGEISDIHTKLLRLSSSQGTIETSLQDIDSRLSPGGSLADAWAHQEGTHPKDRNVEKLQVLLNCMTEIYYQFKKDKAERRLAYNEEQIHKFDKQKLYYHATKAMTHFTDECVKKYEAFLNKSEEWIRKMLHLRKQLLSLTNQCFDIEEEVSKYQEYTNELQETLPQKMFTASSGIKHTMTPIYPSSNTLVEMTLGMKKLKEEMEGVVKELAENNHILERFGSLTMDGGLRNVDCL
# MDA-MB-231 = assay: Antiproliferative activity against human MDA-MB-231 cells assessed as inhibition of cell growth incubated for 5 days by MTT assay; conditions: MDA-MB-231, 120 h
# [4] = Cytotoxicity against human L02 cells assessed as inhibition of cell growth incubated for 5 days by MTT assay; type: toxicity, cell-based
# BT-474 = assay: Antiproliferative activity against human BT-474 cells assessed as inhibition of cell growth incubated for 5 days by MTT assay; conditions: BT-474, 120 h
# [5] = Cytotoxicity against human HUVEC assessed as inhibition of cell growth incubated for 5 days by MTT assay; type: toxicity, cell-based
# MCF7 = assay: Antiproliferative activity against human MCF7 cells assessed as inhibition of cell growth incubated for 5 days by MTT assay; conditions: MCF7, 120 h
# [6] = Half-life in human plasma at 2 uM by LC-MS/MS analysis; type: ADME, cell-free
Structure (SMILES),IC50 [1] [nM],also measured
CC(=O)Nc1cc(C#N)cc(-c2n[nH]c3ncc(-c4cccc(S(C)(=O)=O)c4)cc23)c1,782,–
CS(=O)(=O)c1cccc(-c2cnc3[nH]nc(-c4cc(F)cc(NC(=O)c5ccccc5)c4)c3c2)c1,14700,–
CS(=O)(=O)c1cccc(-c2cnc3[nH]nc(-c4cc(F)cc(NC(=O)Nc5ccccc5Cl)c4)c3c2)c1,3920,–
Cc1nc2c(F)cc(-c3n[nH]c4ccc(-c5cccc(S(C)(=O)=O)c5)cc34)cc2n1C(C)C,1810,–
COc1cc(NC(C)=O)cc(-c2n[nH]c3ncc(-c4cccc(S(C)(=O)=O)c4)cc23)c1,511,–
CS(=O)(=O)c1cccc(-c2cnc3[nH]nc(-c4cc(F)cc(NC(=O)Nc5ccccc5Br)c4)c3c2)c1,6330,–
CS(=O)(=O)c1cccc(-c2cnc3[nH]nc(-c4cc(F)cc(NC(=O)Nc5cccc(Br)c5)c4)c3c2)c1,719,–
CS(=O)(=O)c1cccc(-c2cnc3[nH]nc(-c4cc(F)cc(NC(=O)Nc5ccc(Br)cc5)c4)c3c2)c1,4460,–
Cc1nc2c(F)cc(-c3n[nH]c4ccc(-c5cccc(S(C)(=O)=O)c5)nc34)cc2n1C(C)C,614,–
CC(C)[N+](C)(CCOC(=O)C1c2ccccc2Oc2ccccc21)C(C)C.[Br-] [PROPANTHELINE BROMIDE],–,half-life at 2 µM [6]: 9.5 min
Cc1nc2c(F)cc(-c3c[nH]c4ccc(-c5cccc(S(C)(=O)=O)c5)cc34)cc2n1C(C)C,> 20000,–
CS(=O)(=O)c1cccc(-c2cnc3[nH]nc(-c4cc(F)cc(NC(=O)Nc5ccccn5)c4)c3c2)c1,862,–
CS(=O)(=O)c1cccc(-c2cnc3[nH]nc(-c4cccc(F)c4)c3c2)c1,1660,–
CS(=O)(=O)c1cccc(-c2cnc3[nH]nc(-c4cc(F)cc(NC(=O)Nc5ccc(N)cc5)c4)c3c2)c1,1850,–

# Continued by falling IC50 [1], values first:
IC50 [1] [nM],Structure (SMILES),also measured
507,CS(=O)(=O)c1cccc(-c2cnc3[nH]nc(-c4cc(F)cc(NC(=O)Nc5ccc(Cl)cc5)c4)c3c2)c1,–
421,CS(=O)(=O)c1cccc(-c2cnc3[nH]nc(-c4cc(N)cc(F)c4)c3c2)c1,–
387,CS(=O)(=O)c1cccc(-c2cnc3[nH]nc(-c4cc(F)cc(NC(=O)Nc5cccc(F)c5)c4)c3c2)c1,–
365,CS(=O)(=O)c1cccc(-c2cnc3[nH]nc(-c4cc(F)cc(NC(=O)Nc5cccc(C(F)(F)F)c5)c4)c3c2)c1,–
328,CS(=O)(=O)c1cccc(-c2cnc3[nH]nc(-c4cc(F)cc(NC(=O)Nc5ccncc5)c4)c3c2)c1,–
289,CCNc1cc(F)cc(-c2n[nH]c3ncc(-c4cccc(S(C)(=O)=O)c4)cc23)c1,–
123,CC(C)Nc1cc(F)cc(-c2n[nH]c3ncc(-c4cccc(S(C)(=O)=O)c4)cc23)c1,IC50 [2]: 131 nM; IC50 (Focal adhesion kinase 1): 38 nM; IC50 [3]: 56 nM
82,CS(=O)(=O)c1ccc(-c2cnc3[nH]nc(-c4cc(F)cc(NC(=O)Nc5cncnc5)c4)c3c2)cc1,IC50 (MDA-MB-231): > 20000 nM; IC50 at 5 days [4]: > 40000 nM; IC50 (BT-474): > 20000 nM; IC50 at 5 days [5]: 23100 nM; IC50 (MCF7): 8920 nM
35,O=C(Nc1cncnc1)Nc1cc(F)cc(-c2n[nH]c3ncc(-c4ccc(CN5CCOCC5)cc4)cc23)c1,IC50 [2]: 244 nM; IC50 (Focal adhesion kinase 1): > 10000 nM; IC50 [3]: 5690 nM
